Drawing on ChEMBL document CHEMBL4308890, “A carbapenem-based fluorescence assay for the screening of metallo-β-lactamase inhibitors” (Bioorg Med Chem Lett, 2019), this text covers inhibition and IC50 for three molecules.

Where only a bound is given, the exact number is not on record here.

Usually inhibition stands for the drop in the measured response relative to a control, in per cent. Low readings indicate a response near the control, high ones a response far below the control. The term IC50 denotes the midpoint of a concentration-inhibition curve. A high value points to weaker potency in that assay.

The test system of assay [1] is Aeromonas hydrophila subsp. hydrophila ATCC 7966. Put plainly: Inhibition of Aeromonas hydrophila ATCC 7966 CphA expressed in Escherichia coli LMG194 at 50 uM using CPC-1 as substrate preincubated for 10 mins followed by substrate addition by fluorescence assay relative to control.
Assay [2] is described as follows: Inhibition of Aeromonas hydrophila ATCC 7966 CphA expressed in Escherichia coli LMG194 using CPC-1 as substrate preincubated for 10 mins followed by substrate addition by fluorescence assay. On the set-up: species or system Aeromonas hydrophila subsp. hydrophila ATCC 7966.
Assay [3] in a line: Inhibition of Aeromonas hydrophila ATCC 7966 NDM1 expressed in Escherichia coli LMG194 using CPC-1 as substrate preincubated for 10 mins followed by substrate addition by fluorescence assay. Set-up: species or system Aeromonas hydrophila subsp. hydrophila ATCC 7966.
A short description of assay [4]: Inhibition of Aeromonas hydrophila ATCC 7966 IMP1 expressed in Escherichia coli LMG194 using CPC-1 as substrate preincubated for 10 mins followed by substrate addition by fluorescence assay. Set-up: species or system Aeromonas hydrophila subsp. hydrophila ATCC 7966.
Assay [5] in a line: Inhibition of Aeromonas hydrophila ATCC 7966 NDM1 expressed in Escherichia coli LMG194 using FC3 as substrate preincubated for 10 mins followed by substrate addition by fluorescence assay. Set-up: species or system Aeromonas hydrophila subsp. hydrophila ATCC 7966.
Assay [6] can be described thus: Inhibition of Aeromonas hydrophila ATCC 7966 IMP1 expressed in Escherichia coli LMG194 using FC3 as substrate preincubated for 10 mins followed by substrate addition by fluorescence assay. Set-up: species or system Aeromonas hydrophila subsp. hydrophila ATCC 7966.
Assay [7] is described as follows: Inhibition of Aeromonas hydrophila ATCC 7966 beta-lactamase L1 expressed in Escherichia coli LMG194 using CPC-1 as substrate preincubated for 10 mins followed by substrate addition by fluorescence assay. On the set-up: species or system Aeromonas hydrophila subsp. hydrophila ATCC 7966.
The nature of assay [8]: Inhibition of Aeromonas hydrophila ATCC 7966 beta-lactamase L1 expressed in Escherichia coli LMG194 using FC3 as substrate preincubated for 10 mins followed by substrate addition by fluorescence assay. Set-up: species or system Aeromonas hydrophila subsp. hydrophila ATCC 7966.
Assay [9] is described as follows: Inhibition of Aeromonas hydrophila ATCC 7966 CphA expressed in Escherichia coli LMG194 using imipenem as substrate. On the set-up: species or system Aeromonas hydrophila subsp. hydrophila ATCC 7966.

Regarding `O=c1c2ccccc2[se]n1-c1ccccc1`, in [1], the inhibition was under 50%.
With `OCC(S)CS` (stereo not given) [DIMERCAPROL], the concentration for half-maximal inhibition (IC50) in [2] came to 7.8 µM; in assay [3], 1.5 µM; in [4], 7.1 µM; in assay [5], 1 µM; in [6], 6.2 µM; in assay [7], 5 µM. Further, in assay [8], the half-maximal inhibitory concentration (IC50) was 2.6 µM. In addition, the inhibition in assay [1] was over 80%.
Regarding `O=C(O)c1cccc(C(=O)O)n1` [DIPICOLINIC ACID], the half-inhibitory concentration (IC50) in assay [2] came to 61.5 µM; in [3], 8.8 µM; in [4], 23.6 µM; in assay [5], 6.2 µM; in assay [6], 29.4 µM; in assay [9], 88.4 µM.
